Test results published in PubChem BioAssay (NCI).
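Assay format: 96-well plates, 48-hour exposure. Here, GI50 denotes the concentration required for 50% inhibition of growth. TGI denotes the concentration required for complete inhibition of growth.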

What was measured:
Experiment in all cases: NCI tumour cell line growth inhibition, 48 h
[1] = system: NCI-H23 lung
[2] = system: OVCAR-4 ovarian
[3] = system: SF-539 CNS
[4] = system: SN12C renal
[5] = system: TK-10 renal
[6] = system: HT29 colon
[7] = system: MDA-MB-231 breast
[8] = system: KM12 colon
[9] = system: BT-549 breast
[10] = system: HOP-62 NSCLC

SMILES: CC(C)(C)c1ccc(S(=O)(=O)N[C@H]2CC[C@H]3[C@@H]4CCc5cc(O)ccc5[C@H]4CC[C@]23C)cc1
- GI50 [1]: 2.03 µM
- TGI [1]: 4.28 µM
- GI50 [2]: 2.91 µM
- TGI [2]: 10.2 µM
- GI50 [3]: 1.7 µM
- TGI [3]: 3.14 µM
- GI50 [4]: 1.76 µM
- TGI [4]: 3.55 µM
- GI50 [5]: 3.79 µM
- TGI [5]: 12.1 µM
- GI50 [6]: 1.96 µM
- TGI [6]: 3.74 µM
- GI50 [7]: 1.91 µM
- TGI [7]: 4.13 µM
- GI50 [8]: 1.93 µM
- TGI [8]: 3.87 µM
- GI50 [9]: 1.75 µM
- TGI [9]: 3.32 µM
- GI50 [10]: 2.07 µM
- TGI [10]: 3.98 µM

SMILES: Cc1csc(Nc2nc(-c3cccc(Cl)c3)nc(C(Cl)(Cl)Cl)n2)n1
- GI50 [1]: 23.7 µM
- TGI [1]: > 33.3 µM
- GI50 [2]: 10.7 µM
- TGI [2]: > 33.3 µM
- GI50 [3]: 2.04 µM
- TGI [3]: 11.7 µM
- GI50 [4]: 13.5 µM
- TGI [4]: > 33.3 µM
- GI50 [5]: 2.51 µM
- TGI [5]: 14.4 µM
- GI50 [6]: 1.04 µM
- TGI [6]: 13.1 µM
- GI50 [7]: 2.17 µM
- TGI [7]: > 33.3 µM
- GI50 [8]: 1.64 µM
- TGI [8]: 6.21 µM
- GI50 [9]: > 33.3 µM
- TGI [9]: > 33.3 µM
- GI50 [10]: 1.27 µM
- TGI [10]: 7.99 µM

SMILES: COc1cc(C(=O)N/N=C/c2cccc([N+](=O)[O-])c2)cc(OC)c1OC
- GI50 [1]: 5.96 µM
- TGI [1]: > 100 µM
- GI50 [2]: 43.4 µM
- TGI [2]: > 100 µM
- GI50 [3]: 3.28 µM
- TGI [3]: 16.9 µM
- GI50 [4]: 78.9 µM
- TGI [4]: > 100 µM
- GI50 [5]: 25.2 µM
- TGI [5]: > 100 µM
- GI50 [6]: 2.89 µM
- TGI [6]: 8.1 µM
- GI50 [7]: 26.1 µM
- TGI [7]: > 100 µM
- GI50 [8]: 2.41 µM
- TGI [8]: > 100 µM
- GI50 [9]: 4.95 µM
- TGI [9]: 86.6 µM
- GI50 [10]: 18.4 µM
- TGI [10]: > 100 µM

SMILES: CCCCCCCCCCCCNC(=O)[C@H]1CSC(c2ccc(OC)c(F)c2)N1 (some centres undefined)
- GI50 [1]: 1.6 µM
- TGI [1]: 3.27 µM
- GI50 [2]: 0.699 µM
- TGI [2]: 1.99 µM
- GI50 [3]: 0.785 µM
- TGI [3]: 2.14 µM
- GI50 [4]: 0.841 µM
- TGI [4]: 2.14 µM
- GI50 [5]: 1.95 µM
- TGI [5]: 3.48 µM
- GI50 [6]: 0.837 µM
- TGI [6]: 2.42 µM
- GI50 [7]: 0.225 µM
- TGI [7]: 0.55 µM
- GI50 [8]: 0.335 µM
- TGI [8]: 1.14 µM
- GI50 [9]: 0.37 µM
- TGI [9]: 0.912 µM
- GI50 [10]: 0.273 µM
- TGI [10]: 0.748 µM

SMILES: Cc1nc(C(N)=S)sc1C(=O)CC(=O)C(=O)Nc1cccc(Cl)c1C
- TGI [1]: > 100 µM
- TGI [2]: > 100 µM
- TGI [3]: > 100 µM
- TGI [4]: > 100 µM
- TGI [5]: > 100 µM
- TGI [6]: > 100 µM
- TGI [7]: > 100 µM
- TGI [8]: > 100 µM
- TGI [9]: > 100 µM
- TGI [10]: > 100 µM

SMILES: COc1cc(C2c3cc4c(cc3[C@@H](Nc3cccc(O)c3)C3COC(=O)[C@H]23)OCO4)cc(OC)c1O (some centres undefined)
- GI50 [1]: 0.445 µM
- TGI [1]: 5.52 µM
- TGI [2]: 37.6 µM
- GI50 [3]: 0.482 µM
- TGI [3]: 4.53 µM
- GI50 [4]: 0.688 µM
- TGI [4]: 6.82 µM
- TGI [5]: 10.7 µM
- TGI [6]: 18.8 µM
- TGI [7]: 24.2 µM
- TGI [8]: 11.6 µM
- TGI [9]: 6.7 µM
- GI50 [10]: 0.459 µM
- TGI [10]: 4.24 µM
